Measurements published in patent publication US20100028447A1, “Intranasal, Buccal, And Sublingual Administration Of Metanicotine Analogs” (TARGACEPT, INC., priority 2007, published 2010).
Several values for one entry are separate records, joined by “and”; a condition that tells them apart may be missing. Equal entries are not always repeated. Entries after “also recorded” stand apart in the source; their conditions may differ. Where two headings read alike, the source gives them in different places.

What was measured:
[1] = In situ brain perfusion, single time-point method; settings: for Kin relative to values reported for drugs that do not substantially penetrate the CNS: 50 μM
Procedure: Animals used in this study were Sprague-Dawley rats (approximate weight 250-300 grams), obtained from Hilltop Lab Animals, Scottdale, Pa. Upon arrival, the rats were assigned randomly to treatment groups and acclimated for at least 24 hours. The animals were housed two per cage and identified by cage labels. A single room was used for this study. The animals were supplied with water and a commercial rodent diet ad libitum. On the day of the experiment, each rat was anesthetized intraperitoneally with Ketamine HCl/Xylazine HCl solution prior to being implanted with a cannula into the left carotid artery. Branch arteries were […], and the cardiac supply was cut off prior to brain perfusion.
Perfusion was performed using the single time-point method. […] Following 30 seconds of perfusion, the pump was stopped, and the brain was removed from the skull immediately. The brain was cut longitudinally in […]. Each left cerebral hemisphere was placed into a chilled tube, frozen on dry ice, and stored frozen at −60° C. to −80° C. until analyzed. […] Test articles were perfused at concentrations of 50 μM. The outline of the experimental treatments and the target and measured concentrations of the test articles and control compounds in the perfusate are presented in Table 3.
The left brain hemisphere from each rat was thawed and weighed. Methanol (20% aqueous) was added to each left brain hemisphere at approximately 4 mL per 1 g of brain tissue, and the mixture was homogenized using sonication with a VirSonic Ultrasonic Cell Disruptor 100 (VirTis). The test articles and two reference compounds were analyzed in the resulting homogenate by using LC/MS/MS.
The unidirectional brain transfer constants Kin (mL/g/min) were determined for the test articles and the high permeability reference, antipyrine, using the following equation for the single-point perfusion assay: […]
where: Cbr/Cpf is the apparent brain distribution volume (mL/g of brain tissue); Cbr is the concentration of drug in the brain tissue (pmol of drug per g of brain tissue); Cpf is the drug concentration in the perfusion fluid (pmol/mL of perfusate); and t is the net perfusion time (minutes).
Graphic representation and statistical analyses of the data were performed using GraphPad Prism software.

[2] = Brain-to-plasma ratio after oral gavage or intranasal administration (Example 4); type: in vivo, Sprague-Dawley rats
Procedure: Eight treatment groups of nine rats each were used (see Study Design, Table 6). […] The animals were housed up to three per cage and identified by cage labels. A single room was used for this study. […] Food was withheld from the animals for a minimum of 12 hours before the study and during the study, and was returned at 4 hours post-dose. Water was supplied ad libitum during the study.
All dosing solutions were prepared in isotonic PBS (phosphate buffered saline) buffer at pH 7.4. […] For intranasal dosing, the animals were anesthetized with CO2 prior to dosing, and the solution was administered in a droplet from a pipette.
For each treatment group, brain and plasma samples were collected at 10, 30 and 60 minutes post-dose. Blood samples were placed in heparinized tubles and spun at 13,000 rpm for 5 minutes. The plasma was placed in polyethylene tubes and frozen (−60 to −80° C.). Brain samples were also placed in chilled tubes and frozen (−60 to −80° C.). Samples remained chilled during subsequent processing.
Brain samples were thawed and weighed. […] After homogenation, the volume of each sample was recorded and the samples were frozen at −80° C. until analysis.
Plastic tubes were used for all steps. Standards were prepared at concentrations of 1000, 500, 250, 100, 50, 10, 5 and 1 ng/mL by serial dilution. Quality control samples were also prepared at 500, 100, and 5 ng/mL. […] Brain standards and quality control samples were treated identically to the test compound samples.
Brain samples (200 μL) were loaded onto a 96 well plate and then transferred to 400 μL of pure acetonitrile (containing 10 ng/mL nicotine as an internal standard) in a Sirocco Protein Precipitation Plate (Waters Corporation). The resulting suspensions were mixed and then filtered into a clean 96-well collection plate using a vacuum. A 200 μL aliquot of the resulting filtrate was then transferred to plastic HPLC vials for analysis.
Plasma samples (50 μL) were loaded onto a 96 well plate and then transferred to 150 μL of pure acetonitrile (containing 10 ng/mL nicotine as an internal standard) in a Sirocco Protein Precipitation Plate (Waters Corporation). The resulting suspensions were mixed and then filtered into a clean 96-well collection plate using a vacuum. A 80 μL aliquot of the resulting filtrate was then transferred to plastic HPLC vials for analysis.
Brain samples (200 μL) were loaded onto a 96 well plate and then transferred to 400 μL of acetonitrile containing internal standard (100 ng/mL Pindolol) in a Sirocco Protein Precipitation Plate (Waters Corporation). The resulting suspensions were mixed and then filtered into a clean 96-well collection plate using a vacuum. The resulting filtrates were then evaporated to dryness under nitrogen at 37° C. The resulting residues were reconstituted with 200 μL of water. The samples were then mixed, centrifuged, and transferred (100 μL) to plastic HPLC vials for analysis.
Brain samples (50 μL) were loaded onto a 96 well plate and then transferred to 150 μL of acetonitrile containing internal standard (100 ng/mL Pindolol) in a Sirocco Protein Precipitation Plate (Waters Corporation). The resulting suspensions were mixed and then filtered into a clean 96-well collection plate using a vacuum. The resulting filtrates were then evaporated to dryness under nitrogen at 37° C. The resulting residues were reconstituted with 100 μL of water. The samples were then mixed, centrifuged, and transferred (100 μL) to plastic HPLC vials for analysis.

[3] = Sprague-Dawley, rat, in vivo, 30 s
[4] = Table 5 Treatment 1: Compound A perfused with references, Average ± STD
[5] = Table 5 Treatment 1: Compound A perfused with references, Rat 1
[6] = Table 5 Treatment 1: Compound A perfused with references, Rat 2
[7] = Table 5 Treatment 1: Compound A perfused with references, Rat 3
[8] = Table 5 Treatment 2: Compound A perfused with references + CYP2D6 inhibitor Quinidine, Average ± STD
[9] = Table 5 Treatment 2: Compound A perfused with references + CYP2D6 inhibitor Quinidine, Rat 1
[10] = Table 5 Treatment 2: Compound A perfused with references + CYP2D6 inhibitor Quinidine, Rat 2
[11] = Table 5 Treatment 2: Compound A perfused with references + CYP2D6 inhibitor Quinidine, Rat 3
[12] = Sprague-Dawley, rat, in vivo, 10 mg/kg, Brain-to-Plasma Ratio
[13] = Sprague-Dawley, rat, in vivo, 10 mg/kg, Mean Ratio (brain-to-plasma)
[14] = Sprague-Dawley, rat, in vivo, intranasal, 1 mg/kg, Average brain-to-plasma ratio
[15] = Sprague-Dawley, rat, in vivo, po, 5 mg/kg, Average brain-to-plasma ratio
[16] = Table 4 Treatment 2: Compound B perfused with references + MAO inhibitor Pargyline, Rat 1
[17] = Table 4 Treatment 2: Compound B perfused with references + MAO inhibitor Pargyline, Rat 2
[18] = Table 4 Treatment 2: Compound B perfused with references + MAO inhibitor Pargyline, Rat 3

CN[C@@H](C)C/C=C/c1cncc(OC)c1 [Compound A, (2S)-(4E)-N-methyl-5-(3-(5-methoxypyridin)yl)-4-penten-2-amine]
Brain penetration (brain concentration, Kin) in the absence or presence of the CYP2D6 inhibitor Quinidine ([1]; N=3): no significant difference; also recorded: did not affect
Kin relative to values reported for drugs that do not substantially penetrate the CNS [1, 3]: more than 100 times
Brain Concentration (corrected for drug retained in vascular volume) [1, 4]: 5504.5 ± 961.7 pmol/g
Kin [1, 4]: 0.198+ ± 0.035 mL/g/min
Brain Concentration (corrected for drug retained in vascular volume) [1, 5]: 6558.8 pmol/g
Kin [1, 5]: 0.236 mL/g/min
Brain Concentration (corrected for drug retained in vascular volume) [1, 6]: 5279.1 pmol/g
Kin [1, 6]: 0.190 mL/g/min
Brain Concentration (corrected for drug retained in vascular volume) [1, 7]: 4675.5 pmol/g
Kin [1, 7]: 0.168 mL/g/min
Brain Concentration (corrected for drug retained in vascular volume) [1, 8]: 5803.0 ± 278.8 pmol/g
Kin [1, 8]: 0.212 ± 0.010 mL/g/min
Brain Concentration (corrected for drug retained in vascular volume) [1, 9]: 5574.4 pmol/g
Kin [1, 9]: 0.203 mL/g/min
Brain Concentration (corrected for drug retained in vascular volume) [1, 10]: 6113.5 pmol/g
Kin [1, 10]: 0.223 mL/g/min
Brain Concentration (corrected for drug retained in vascular volume) [1, 11]: 5721.1 pmol/g
Kin [1, 11]: 0.209 mL/g/min
Average Kin of Compound A (absence of Quinidine) compared with Compound B (absence of Pargyline) ([1]; rat, in vivo): higher
Potential to penetrate the brain ([1]; rat, in vivo): good potential
Plasma Conc. ([2]; Group 1, OG, 10 mg/kg, 30 min, 10 mg/kg): 216 ng/mL and 278 ng/mL
Plasma Conc. ([2]; Group 1, OG, 10 mg/kg, 60 min, 10 mg/kg): 239 ng/mL and 234 ng/mL
Plasma Conc. ([2]; Group 3, OG, 10 mg/kg, 10 min, 10 mg/kg): 327 ng/mL and 249 ng/mL
Kp at 0.5 h [2, 12]: 0.044
Kp at 1 h [2, 12]: 0.038
concentration at 30 min ([2]; Sprague-Dawley, rat, in vivo, 10 mg/kg, Group 1, OG, 10 mg/kg, 30 min, read-out: Brain Conc.): 2.04 ng/mL and 9.6 ng/g
concentration at 30 min ([2]; Sprague-Dawley, rat, in vivo, 10 mg/kg, Group 1, OG, 10 mg/kg, 30 min, read-out: Plasma Conc.): 174 ng/mL
concentration at 60 min ([2]; Sprague-Dawley, rat, in vivo, 10 mg/kg, Group 1, OG, 10 mg/kg, 60 min, read-out: Brain Conc.): 1.26 ng/mL and 6.08 ng/g
concentration at 60 min ([2]; Sprague-Dawley, rat, in vivo, 10 mg/kg, Group 1, OG, 10 mg/kg, 60 min, read-out: Plasma Conc.): 158 ng/mL
concentration at 60 min ([2]; Sprague-Dawley, rat, in vivo, 10 mg/kg, Group 2, OG, 10 mg/kg, 60 min, read-out: Brain Conc.): 2.81 ng/mL and 13.9 ng/g
concentration at 10 min ([2]; Sprague-Dawley, rat, in vivo, 10 mg/kg, Group 3, OG, 10 mg/kg, 10 min, read-out: Plasma Conc.): 313 ng/mL
Kp at 0.5 h [2, 13]: 0.042
Kp at 1 h [2, 13]: 0.032
Kp at […] [2, 13]: 0.039
Kp at 0.5 h ([2]; Sprague-Dawley, rat, in vivo, intranasal, 0.1 mg/kg, Brain-to-plasma ratio): 5.52
Kp at […] ([2]; Sprague-Dawley, rat, in vivo, intranasal, 0.1 mg/kg, Brain-to-plasma ratio (average value)): 2.21
Kp at 0.5 h [2, 14]: 4.28
Kp at 1 h [2, 14]: 6.4
Kp at […] [2, 14]: 1.58
Kp at 0.5 h [2, 15]: 2.37
Kp at 1 h [2, 15]: 3.38
Kp at […] [2, 15]: 1.75
Exposures in plasma and brain, Compound A compared with Compound B ([2]; by both intranasal and oral administration): much greater
Brain-to-plasma ratios, intranasal as opposed to oral gavage administration ([2]; rat, in vivo): generally greater

CNCC/C=C/c1cccnc1 [Compound B, N-methyl-(4-pyridin-3-yl-but-3-enyl)-amine]
Brain concentration and Kin in the presence of the MAO inhibitor Pargyline compared to alone [1, 3]: ^Significantly higher than the corresponding values of Compound B in the absence of enzymatic inhibitor (p < 0.05, two-tailed t-test).
Kin relative to values reported for drugs that do not substantially penetrate the CNS [1, 3]: more than 100 times
Brain Concentration (corrected for drug retained in vascular volume) ([1]; Table 4 Treatment 1: Compound B perfused with references, Average ± STD): 2681.0 ± 513.0 pmol/g
Brain Concentration (corrected for drug retained in vascular volume) ([1]; Table 4 Treatment 1: Compound B perfused with references, Rat 1): 2725.9 pmol/g
Brain Concentration (corrected for drug retained in vascular volume) ([1]; Table 4 Treatment 1: Compound B perfused with references, Rat 2): 3170.1 pmol/g
Brain Concentration (corrected for drug retained in vascular volume) ([1]; Table 4 Treatment 1: Compound B perfused with references, Rat 3): 2147.0 pmol/g
Brain Concentration (corrected for drug retained in vascular volume) ([1]; Table 4 Treatment 2: Compound B perfused with references + MAO inhibitor Pargyline, Average ± STD): 3652.8^ ± 293.1 pmol/g
Brain Concentration (corrected for drug retained in vascular volume) [1, 16]: 3358.2 pmol/g
Kin [1, 16]: 0.110 mL/g/min
Brain Concentration (corrected for drug retained in vascular volume) [1, 17]: 3655.8 pmol/g
Kin [1, 17]: 0.120 mL/g/min
Brain Concentration (corrected for drug retained in vascular volume) [1, 18]: 3944.4 pmol/g
Kin [1, 18]: 0.129 mL/g/min
Brain concentration and Kin in the presence of the MAO inhibitor Pargyline compared to alone ([1]; rat, in vivo): significantly increased
Potential to penetrate the brain ([1]; rat, in vivo): good potential
Kp at […] ([2]; Sprague-Dawley, rat, in vivo, inhaled or intranasal, 1 mg/kg, intranasal 1 mg/kg with pargyline, 10 minute time point, two animals, read-out: Brain-to-plasma ratio (average value)): 0.89
Kp at 0.5 h ([2]; Sprague-Dawley, rat, in vivo, inhaled or intranasal, 1 mg/kg, intranasal 1 mg/kg with pargyline, 30 minute time point, one animal, read-out: Brain-to-plasma ratio): 0.21
Kp at […] ([2]; Sprague-Dawley, rat, in vivo, inhaled or intranasal, 1 mg/kg, intranasal 1 mg/kg without pargyline, 10 minute time point, two animals, read-out: Brain-to-plasma ratio (average value)): 1.09
Kp ([2]; Sprague-Dawley, rat, in vivo, po, 10 mg/kg, oral gavage administration, two animals, both at the minute time point): 0.22
